Experimental data reported in ChEMBL document CHEMBL6134813, “Arctigenin derivative TZOA restores mitochondrial homeostasis to combat rhabdovirus infections” (Eur J Med Chem, 2025).
Active and inactive are the calls of the source. The rule behind the calls is not given here.

Key:
[1] = system: Infectious hematopoietic necrosis virus; experiment: Antiviral activity against IHNV infected in EPC cells (unknown origin) assessed as area of mitochondria by TEM analysis (reference value: 0.05 to 0.2 um2); format: functional
[2] = system: Infectious hematopoietic necrosis virus; experiment: Antiviral activity against IHNV infected in juvenile rainbow trout assessed as increase in ISG15 gene expression in spleen administered intraperitoneally measured after 2 days by RT-qPCR analysis; format: functional, organism-based; conditions: route ip, time 2.0 day
[3] = system: Infectious hematopoietic necrosis virus; experiment: Antiviral activity against IHNV infected in EPC cells (unknown origin) assessed as reduction in cytopathic effect at 25 uM pretreated virus with compound for 1 to 2 hrs followed by compound-treated virus infection in EPC cells measured after 72 hrs by RT-qPCR analysis; format: functional, organism-based; conditions: time 1-2 hrs
[4] = system: Infectious hematopoietic necrosis virus; experiment: Antiviral activity against IHNV infected in EPC cells (unknown origin) assessed as reduction in cytopathic effect at >4 uM measured after 72 hrs by RT-qPCR analysis; format: functional, organism-based
[5] = system: Infectious hematopoietic necrosis virus; experiment: Antiviral activity against IHNV infected in EPC cells (unknown origin) assessed as mitochondrial length by TEM analysis (reference value: 0.2 to 0.7 um); format: functional
[6] = system: Infectious hematopoietic necrosis virus; experiment: Antiviral activity against IHNV infected in EPC cells (unknown origin) assessed as inhibition of viral N gene expression measured after 72 hrs by RT-qPCR analysis; format: functional, organism-based; conditions: dose 0.1-100 µM
[7] = system: Infectious hematopoietic necrosis virus; experiment: Antiviral activity against IHNV infected in EPC cells (unknown origin) assessed as inhibition of viral infection at 4 to 25 uM measured after 72 hrs by RT-qPCR analysis; format: functional, organism-based; conditions: dose 4-25 µM
[8] = system: Infectious hematopoietic necrosis virus; experiment: Antiviral activity against IHNV infected in juvenile rainbow trout assessed as increase in ISG15 gene expression in kidney administered intraperitoneally measured after 2 days by RT-qPCR analysis; format: functional, organism-based; conditions: route ip, time 2.0 day
[9] = Cytotoxicity against EPC cells (unknown origin) assessed as cell viability up to 25 uM measured after 72 hrs by CCK8 assay; format: toxicity, cell-based
[10] = system: Infectious hematopoietic necrosis virus; experiment: Antiviral activity against IHNV infected in juvenile rainbow trout assessed as decrease in erythrocytes in kidney administered intraperitoneally measured after 2 days by H and E staining based analysis; format: functional, organism-based; conditions: route ip, time 2.0 day
[11] = system: Infectious hematopoietic necrosis virus; experiment: Antiviral activity against IHNV infected in juvenile rainbow trout assessed as decrease in viral G gene expression in spleen of recipient fishes on horizontal transmission between virus-infected donor fishes and non-infected recipient fishes at 25 uM immersed together in compound for 48 hrs by qPCR analysis; format: functional, organism-based
[12] = system: Infectious hematopoietic necrosis virus; experiment: Antiviral activity against IHNV infected in juvenile rainbow trout assessed as increase in IFN-1 gene expression in spleen administered intraperitoneally measured after 2 days by RT-qPCR analysis; format: functional, organism-based; conditions: route ip, time 2.0 day
[13] = system: Infectious hematopoietic necrosis virus; experiment: Antiviral activity against IHNV infected in EPC cells (unknown origin) assessed as inhibition of viral G gene expression measured after 72 hrs by RT-qPCR analysis; format: functional, organism-based; conditions: dose 0.1-100 µM
[14] = system: Infectious hematopoietic necrosis virus; experiment: Antiviral activity against IHNV infected in EPC cells (unknown origin) assessed as increase in cell proliferation at 4 uM measured after 72 hrs by CCK8 assay relative to control; format: functional
[15] = system: Infectious hematopoietic necrosis virus; experiment: Antiviral activity against IHNV infected in juvenile rainbow trout assessed as decrease in viral titer in recipient fishes on horizontal transmission between virus-infected donor fishes and non-infected recipient fishes at 25 uM immersed together in compound for 48 hrs; format: functional, organism-based
[16] = system: Infectious hematopoietic necrosis virus; experiment: Antiviral activity against IHNV infected in juvenile rainbow trout assessed as decrease in hemorrhage in kidney administered intraperitoneally measured after 2 days by H and E staining based analysis; format: functional, organism-based; conditions: route ip, time 2.0 day
[17] = system: Infectious hematopoietic necrosis virus; experiment: Antiviral activity against IHNV infected in juvenile rainbow trout assessed as increase in IRF3 gene expression in kidney administered intraperitoneally measured after 2 days by RT-qPCR analysis; format: functional, organism-based; conditions: route ip, time 2.0 day
[18] = system: Infectious hematopoietic necrosis virus; experiment: Antiviral activity against IHNV infected in EPC cells (unknown origin) assessed as reduction in viral G protein expression at 25 uM pretreated virus with compound for 4 hrs followed by compound-treated virus infection in EPC cells measured after 72 hrs by RT-qPCR analysis relative to control; format: functional; parameters: scale not given: the % may be the effect or the level left
[19] = system: Infectious hematopoietic necrosis virus; experiment: Antiviral activity against IHNV infected in juvenile rainbow trout assessed as increase in survival rate administered intraperitoneally measured for 14 days relative to control; format: functional; conditions: route ip; time 14 day
[20] = system: Infectious hematopoietic necrosis virus; experiment: Antiviral activity against IHNV infected in EPC cells (unknown origin) assessed as viral titer measured per 0.1 ml incubated for 72 hrs by Reed-Muench method (reference value: 1 10^6.74TCID50); format: functional
[21] = system: Infectious hematopoietic necrosis virus; experiment: Antiviral activity against IHNV infected in EPC cells (unknown origin) assessed as reduction in viral G protein expression at 25 uM pretreated virus with compound for 2 hrs followed by compound-treated virus infection in EPC cells measured after 72 hrs by RT-qPCR analysis relative to control; format: functional; parameters: scale not given: the % may be the effect or the level left
[22] = system: Infectious hematopoietic necrosis virus; experiment: Antiviral activity against IHNV infected in EPC cells (unknown origin) assessed as viral titer measured per 0.1 ml incubated for 48 hrs by Reed-Muench method (reference value: 1 10^5.75TCID50); format: functional
[23] = system: Infectious hematopoietic necrosis virus; experiment: Antiviral activity against IHNV infected in EPC cells (unknown origin) assessed as unchanged morphology in host cells at 25 uM pretreated virus with compound for 4 hrs followed by compound-treated virus infection in EPC cells measured after 72 hrs by microscopic analysis; format: functional, organism-based
[24] = system: Infectious hematopoietic necrosis virus; experiment: Antiviral activity against IHNV infected in EPC cells (unknown origin) assessed as dense monolayer arrangement in host cells at 25 uM pretreated virus with compound for 4 hrs followed by compound-treated virus infection in EPC cells measured after 72 hrs by microscopic analysis; format: functional, organism-based
[25] = system: Infectious hematopoietic necrosis virus; experiment: Antiviral activity against IHNV infected in EPC cells (unknown origin) assessed as decrease in formation of new viral particles at 25 uM measured after 72 hrs by RT-qPCR analysis relative to control; format: functional; parameters: scale not given: the % may be the effect or the level left
[26] = system: Infectious hematopoietic necrosis virus; experiment: Antiviral activity against IHNV infected in EPC cells (unknown origin) assessed as cristae of varying lengths with attached granules in inner membrane of mitochondria by TEM analysis; format: functional, organism-based
[27] = system: Infectious hematopoietic necrosis virus; experiment: Antiviral activity against IHNV infected in juvenile rainbow trout assessed as decrease in viral G gene expression in spleen administered intraperitoneally measured after 1 to 4 days by RT-qPCR analysis; format: functional, organism-based; conditions: route ip, time 1-4 day
[28] = system: Infectious hematopoietic necrosis virus; experiment: Antiviral activity against IHNV infected in EPC cells (unknown origin) assessed as inhibition of viral replication at 25 uM preincubated for 24 hrs followed by viral infection measured after 72 hrs by RT-qPCR analysis; format: functional, organism-based; conditions: time 96.0 hrs
[29] = system: Infectious hematopoietic necrosis virus; experiment: Antiviral activity against IHNV infected in EPC cells (unknown origin) assessed as increase in virus-reduced average number of mitochondrial networks within cells at 25 uM incubated for 72 hrs by Mito-Tracker dye based analysis; format: functional, organism-based
[30] = system: Infectious hematopoietic necrosis virus; experiment: Antiviral activity against IHNV infected in EPC cells (unknown origin) assessed as inhibition of viral M gene expression measured after 72 hrs by RT-qPCR analysis; format: functional, organism-based; conditions: dose 0.1-100 µM

For `COc1ccc(C[C@H]2COC(=O)[C@@H]2Cc2ccc(OCCCCCCCCn3cncn3)c(OC)c2)cc1OC`, the Activity [1] was 0.2 um2, the Activity [2] was “Active” and the Activity [3] was “Active”. For the same molecule, the Activity [4] was “Active”, the Activity [5] was 0.8 um and the inhibition [6] was “Dose-dependent-effect”. For the same molecule, the inhibition [7] was “Active”, the Activity [8] was “Active” and the Activity [9] was “Non-toxic”. For the same molecule, the Activity [10] was “Active”, the Activity [11] was “Active” and the Activity [12] was “Active”. For the same molecule, the inhibition [13] was “Dose-dependent-effect”, the Activity [14] was >50% and the Activity [15] was “Active”. The Activity [16] was “Active”, the Activity [17] was “Active” and the Activity [18] was 67%. For the same molecule, the Survival [19] was 44%, the Activity [20] was 1 10^4.73TCID50 and the Activity [21] was 24%. For the same molecule, the Activity [22] was 1 10^2.45TCID50, the Activity [23] was “Active” and the Activity [24] was “Active”. For the same molecule, the Activity [25] was 100%, the Activity [26] was “Active” and the Activity [27] was “Active”. The inhibition [28] was “Active”, the Activity [29] was “Active” and the inhibition [30] was “Dose-dependent-effect”.
